The results in this text go back to US12421282B2, “Compositions and methods for the treatment of metabolic and liver disorders” (priority 2021, dated 2025).

Like-named read-outs stand apart in the source and are kept apart here. *1 amine or outer side, *2 acyl side, *3 side chain or, on linkers, in order; H or OH if unused. Where a SMILES comes first, the peptide text is derived from it. Side-chain parts run from the residue outwards. [ ]: non-standard residue; d: D form. The star is where a group is joined. Nonadecanoyl(19-PO3H2) = O=C(CCCCCCCCCCCCCCCCCCP(=O)(O)O)*; γGlu = O=C(O)[C@H](CCC(=O)[*:2])N[*:1]; AEEA = NCCOCCOCC(=O)O; Aib = CC(C)(N)C(=O)O

For data set [1], the target named is human recombinant GLP-1 receptor (Homo sapiens, UniProt P43220). The data set is described as follows: TagLite binding assay, GLP-1 receptor, without and with 2% HSA. An excerpt:
(§1) Binding data for Compounds 15-25, for two human recombinant G protein coupled receptors, GLP-1 and GIP, was obtained using […]® binding assay and Epics Therapeutics cell lines. The binding assay was repeated in the presence of 2% human serum albumin (HSA). Compounds 16, 21, and 22 have an HSA ratio for the GLP-1 receptor of 7.1, 7.6, and 7.8, respectively. Compounds 15, 18, and 23 have an HSA ratio for the GIP receptor of 7.3, 4.3, and 6.4, respectively. A lower HSA ratio indicates greater binding affinity for the receptor than for albumin when compared to a compound with a greater HSA ratio.

Data set [2] deals with T1, human recombinant GIP receptor (Homo sapiens, UniProt P48546).
T1 sequence (P48546 22-466): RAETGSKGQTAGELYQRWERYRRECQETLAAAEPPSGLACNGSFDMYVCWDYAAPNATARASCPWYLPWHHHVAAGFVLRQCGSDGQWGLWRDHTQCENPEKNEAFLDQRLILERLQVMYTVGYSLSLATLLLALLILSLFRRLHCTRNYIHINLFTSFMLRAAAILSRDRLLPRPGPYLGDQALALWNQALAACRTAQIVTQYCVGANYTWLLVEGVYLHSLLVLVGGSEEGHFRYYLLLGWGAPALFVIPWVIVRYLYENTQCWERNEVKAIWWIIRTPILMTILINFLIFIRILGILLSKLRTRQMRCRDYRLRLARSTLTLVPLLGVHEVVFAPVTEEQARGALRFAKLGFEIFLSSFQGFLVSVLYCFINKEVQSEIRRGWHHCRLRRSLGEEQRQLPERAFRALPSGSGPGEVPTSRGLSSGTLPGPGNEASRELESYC
The data set is described as follows: TagLite binding assay, GIP receptor, without and with 2% HSA.
From the text: as §1

Details of data set [3]: species or system cynomolgus monkeys. The conditions noted are these: cynomolgus monkey, in vivo, sc, 0.2 mg/kg. The method, then:
Subcutaneous (SC) dosing of the compounds in a vehicle of 0.1% bovine serum albumin in phosphate buffered saline solution was performed with male cynomolgus monkeys. […] Samples were obtained at 1, 4, 8, 12, 24, 48, 72, 96, 120, 168, 192, 240 and 336 hours after the single dose was administered.

The mark [4] stands for this setting: 2% human serum albumin, read-out: GLP-1 receptor IC50 2% HSA.
[5] abbreviates: no HSA, read-out: GLP-1 receptor IC50 No HSA.
The mark [6] stands for this setting: 2% human serum albumin, read-out: GIP receptor IC50 2% HSA.
The mark [7] stands for this setting: no HSA, read-out: GIP receptor IC50 No HSA.

Sequence of human recombinant GLP-1 receptor (P43220 24-463): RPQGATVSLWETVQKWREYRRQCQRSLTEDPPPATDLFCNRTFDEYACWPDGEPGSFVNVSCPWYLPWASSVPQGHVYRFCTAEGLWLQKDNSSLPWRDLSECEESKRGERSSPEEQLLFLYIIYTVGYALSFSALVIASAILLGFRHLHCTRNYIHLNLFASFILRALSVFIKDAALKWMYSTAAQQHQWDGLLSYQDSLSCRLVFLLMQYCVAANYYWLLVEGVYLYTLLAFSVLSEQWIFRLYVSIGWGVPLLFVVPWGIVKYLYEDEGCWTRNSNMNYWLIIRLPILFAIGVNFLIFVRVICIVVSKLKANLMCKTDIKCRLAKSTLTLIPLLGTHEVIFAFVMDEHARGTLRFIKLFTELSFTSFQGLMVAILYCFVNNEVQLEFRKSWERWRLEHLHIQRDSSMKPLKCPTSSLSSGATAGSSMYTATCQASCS

One may read the IC50 as the midpoint of a concentration-inhibition curve. Broadly, the AUC(0-inf) is total exposure, with the tail of the curve extrapolated. High values mean more exposure, low ones less exposure. As a reminder, the AUC(0-t) is the area under the concentration-time curve up to a stated or last time point. A high value points to high exposure. For orientation: Cmax means the maximum level reached in the sampled fluid or tissue. Usually Tmax stands for the time from dosing to the highest level. A word on the half-life: it is the time needed for the level to fall by half in the phase considered. A high value points to slow decline. Regarding `CC[C@H](C)[C@H](NC(=O)[C@H](CC(C)C)NC(=O)[C@H](Cc1c[nH]c2ccccc12)NC(=O)[C@H](CCC(N)=O)NC(=O)[C@@H](NC(=O)[C@H](Cc1ccccc1)NC(=O)[C@H](C)NC(=O)[C@H](CCCCNC(=O)COCCOCCNC(=O)COCCOCCNC(=O)CC[C@H](NC(=O)CCCCCCCCCCCCCCCCCCP(=O)(O)O)C(=O)O)NC(=O)[C@H](CCC(N)=O)NC(=O)[C@H](CO)NC(=O)[C@@H](NC(=O)[C@H](CCCCN)NC(=O)[C@H](CC(=O)O)NC(=O)[C@H](CC(C)C)NC(=O)C(C)(C)NC(=O)[C@@H](NC(=O)[C@H](CO)NC(=O)[C@H](Cc1ccc(O)cc1)NC(=O)[C@H](CC(=O)O)NC(=O)[C@H](CO)NC(=O)[C@@H](NC(=O)[C@H](Cc1ccccc1)NC(=O)[C@@H](NC(=O)CNC(=O)[C@H](CCC(=O)O)NC(=O)C(C)(C)NC(=O)[C@@H](N)Cc1ccc(O)cc1)[C@@H](C)O)[C@@H](C)O)[C@@H](C)CC)[C@@H](C)CC)C(C)C)C(=O)N[C@@H](C)C(=O)NCC(=O)NCC(=O)N1CCC[C@H]1C(=O)N[C@@H](CO)C(=O)N[C@@H](CO)C(=O)NCC(=O)N[C@@H](C)C(=O)N1CCC[C@H]1C(=O)N1CCC[C@H]1C(=O)N1CCC[C@H]1C(=O)N[C@@H](CO)C(N)=O` [Compound 24] (H-Y[Aib]EGTFTSDYSI[Aib]LDKISQK([AEEA-AEEA-γGlu-Nonadecanoyl(19-PO3H2)])AFVQWLIAGGPSSGAPPPS-NH2), the IC50 in data set [1] (setting [4]) is 6830 nM. In addition, the IC50 in data set [1] (setting [5]) came out at 686 nM. Also, the IC50 in data set [2] (setting [6]) was 11400 nM. Further, in data set [2] (setting [7]), the IC50 came out at 1160 nM. Also, in data set [3], the AUC(0-inf) is 348 µg·h/mL, the AUC(0-t) turned out to be 302 µg·h/mL, the highest level (Cmax) was 2130 ng/mL and the Tmax was 22.7 h. In addition, in data set [3], the half-life was 111 h and the “mean half life longer compared to tirzepatide” value is reported as “at least 50%”.
`CC[C@H](C)[C@H](NC(=O)[C@H](CCCCN)NC(=O)[C@H](CC(=O)O)NC(=O)[C@H](CC(C)C)NC(=O)[C@H](Cc1ccccc1)NC(=O)[C@@H](NC(=O)[C@H](CO)NC(=O)[C@H](Cc1ccc(O)cc1)NC(=O)[C@H](CC(=O)O)NC(=O)[C@H](CO)NC(=O)[C@@H](NC(=O)[C@H](Cc1ccccc1)NC(=O)[C@@H](NC(=O)CNC(=O)[C@H](CCC(=O)O)NC(=O)C(C)(C)NC(=O)[C@@H](N)Cc1ccc(O)cc1)[C@@H](C)O)[C@@H](C)O)[C@@H](C)CC)C(=O)N[C@@H](C)C(=O)N[C@@H](CCC(N)=O)C(=O)N[C@@H](CCCCNC(=O)COCCOCCNC(=O)COCCOCCNC(=O)CC[C@H](NC(=O)CCCCCCCCCCCCCCCCCCP(=O)(O)O)C(=O)O)C(=O)N[C@@H](C)C(=O)N[C@@H](Cc1ccccc1)C(=O)N[C@H](C(=O)N[C@@H](CCC(N)=O)C(=O)N[C@@H](Cc1c[nH]c2ccccc12)C(=O)N[C@@H](CC(C)C)C(=O)N[C@H](C(=O)N[C@@H](C)C(=O)NCC(=O)NCC(=O)N1CCC[C@H]1C(=O)N[C@@H](CO)C(=O)N[C@@H](CO)C(=O)NCC(=O)N[C@@H](C)C(=O)N1CCC[C@H]1C(=O)N1CCC[C@H]1C(=O)N1CCC[C@H]1C(=O)N[C@@H](CO)C(N)=O)[C@@H](C)CC)C(C)C` [Compound 18] (H-Y[Aib]EGTFTSDYSIFLDKIAQK([AEEA-AEEA-γGlu-Nonadecanoyl(19-PO3H2)])AFVQWLIAGGPSSGAPPPS-NH2): the IC50 in data set [1] (setting [4]) was determined as 1520 nM. Moreover, the IC50 in data set [1] (setting [5]) was determined as 166 nM. Also, the IC50 in data set [2] (setting [6]) worked out at 2850 nM. In addition, the IC50 in data set [2] (setting [7]) came out at 659 nM. In data set [3], the AUC(0-inf) was found to be 149 µg·h/mL, the exposure AUC(0-t) is 140 µg·h/mL, the concentration peaked (Cmax) at 1340 ng/mL and the Tmax is 13.3 h. This compound also had a half-life in data set [3] of 81.1 h.
With `CC[C@H](C)[C@H](NC(=O)[C@H](CCCCN)NC(=O)[C@H](CC(=O)O)NC(=O)[C@H](CC(C)C)NC(=O)C(C)(C)NC(=O)[C@@H](NC(=O)[C@H](CO)NC(=O)[C@H](Cc1ccc(O)cc1)NC(=O)[C@H](CC(=O)O)NC(=O)[C@H](CO)NC(=O)[C@@H](NC(=O)[C@H](Cc1ccccc1)NC(=O)[C@@H](NC(=O)CNC(=O)[C@H](CCC(=O)O)NC(=O)C(C)(C)NC(=O)[C@@H](N)Cc1ccc(O)cc1)[C@@H](C)O)[C@@H](C)O)[C@@H](C)CC)C(=O)N[C@@H](C)C(=O)N[C@@H](CCC(N)=O)C(=O)N[C@@H](CCCCNC(=O)COCCOCCNC(=O)COCCOCCNC(=O)CC[C@H](NC(=O)CCCCCCCCCCCCCCCCCCP(=O)(O)O)C(=O)O)C(=O)N[C@@H](C)C(=O)N[C@@H](Cc1ccccc1)C(=O)N[C@H](C(=O)N[C@@H](CCC(N)=O)C(=O)N[C@@H](Cc1c[nH]c2ccccc12)C(=O)N[C@@H](CC(C)C)C(=O)N[C@H](C(=O)N[C@@H](CCCNC(=N)N)C(=O)NCC(=O)NCC(=O)N1CCC[C@H]1C(=O)N[C@@H](CO)C(=O)N[C@@H](CO)C(=O)NCC(=O)N[C@@H](C)C(=O)N1CCC[C@H]1C(=O)N1CCC[C@H]1C(=O)N1CCC[C@H]1C(=O)N[C@@H](CO)C(N)=O)[C@@H](C)CC)C(C)C` [Compound 20] (H-Y[Aib]EGTFTSDYSI[Aib]LDKIAQK([AEEA-AEEA-γGlu-Nonadecanoyl(19-PO3H2)])AFVQWLIRGGPSSGAPPPS-NH2), the IC50 in data set [1] (setting [4]) is 2050 nM. Besides, in data set [1] (setting [5]), the IC50 worked out at 226 nM. Further, the IC50 in data set [2] (setting [6]) was 4420 nM. Besides, in data set [2] (setting [7]), the IC50 amounted to 492 nM. For the same compound, in data set [3], the AUC(0-inf) amounted to 417 µg·h/mL, the AUC(0-t) is 342 µg·h/mL, the Cmax is 2060 ng/mL and the Tmax came to 13.3 h. In data set [3], the half-life was 132 h, the “mean half life as compared to tirzepatide (in words)” value was “more than twice an long as compared to tirzepatide” and the “mean half life longer compared to tirzepatide” value is “at least 50%”.
In the case of `CC[C@H](C)[C@H](NC(=O)[C@H](CCCCN)NC(=O)[C@H](CC(=O)O)NC(=O)[C@H](CC(C)C)NC(=O)[C@H](Cc1ccccc1)NC(=O)[C@@H](NC(=O)[C@H](CO)NC(=O)[C@H](Cc1ccc(O)cc1)NC(=O)[C@H](CC(=O)O)NC(=O)[C@H](CO)NC(=O)[C@@H](NC(=O)[C@H](Cc1ccccc1)NC(=O)[C@@H](NC(=O)CNC(=O)[C@H](CCC(=O)O)NC(=O)C(C)(C)NC(=O)[C@@H](N)Cc1ccc(O)cc1)[C@@H](C)O)[C@@H](C)O)[C@@H](C)CC)C(=O)N[C@@H](C)C(=O)N[C@@H](CCC(N)=O)C(=O)N[C@@H](CCCCNC(=O)COCCOCCNC(=O)COCCOCCNC(=O)CC[C@H](NC(=O)CCCCCCCCCCCCCCCCCCP(=O)(O)O)C(=O)O)C(=O)N[C@@H](C)C(=O)N[C@@H](Cc1ccccc1)C(=O)N[C@H](C(=O)N[C@@H](CC(N)=O)C(=O)N[C@@H](Cc1c[nH]c2ccccc12)C(=O)N[C@@H](CC(C)C)C(=O)N[C@H](C(=O)N[C@@H](C)C(=O)NCC(=O)NCC(=O)N1CCC[C@H]1C(=O)N[C@@H](CO)C(=O)N[C@@H](CO)C(=O)NCC(=O)N[C@@H](C)C(=O)N1CCC[C@H]1C(=O)N1CCC[C@H]1C(=O)N1CCC[C@H]1C(=O)N[C@@H](CO)C(N)=O)[C@@H](C)CC)C(C)C` [Compound 21] (H-Y[Aib]EGTFTSDYSIFLDKIAQK([AEEA-AEEA-γGlu-Nonadecanoyl(19-PO3H2)])AFVNWLIAGGPSSGAPPPS-NH2), in data set [1] (setting [4]), the IC50 is 1100 nM. Besides, in data set [1] (setting [5]), the IC50 was found to be 144 nM. The IC50 in data set [2] (setting [6]) was found to be 5280 nM. Further, the IC50 in data set [2] (setting [7]) is 561 nM. Also, in data set [3], the AUC(0-inf) came to 54 µg·h/mL, the area under the curve AUC(0-t) was 49.4 µg·h/mL, the Cmax was 339 ng/mL and the Tmax amounted to 48 h. For the same compound, in data set [3], the half-life was 90.5 h and the “mean half life longer compared to tirzepatide” value is listed as “at least 50%”.
